Consider 1 molecule from patent US8557843B2, “Quinoline derivatives and their use as tyrosine kinase inhibitors” (ClanoTech AB, priority 2007, dated 2013).

In one assay the target is T1, alpha-v-beta-3 (Homo sapiens, UniProt P05106+P06756).
T1 construct: obtained from academic sources as recombinant, soluble proteins (the extracellular domain)
As to the kind of experiment: Integrin assay: SHG, inhibition of RGD-peptide-induced conformational change. The class given is biochemical. The settings on record: compound pre-incubated at 100 μM for 20 minutes, then RGD peptide 400 μM; labeled alpha-v-beta-3. On the procedure:
(§1) This assay was conducted by Biodesy (Burlingame, Calif., USA). Purified integrins were obtained from academic and commercial sources. Alpha-5-beta-1 and alpha-v-beta-3 were obtained from academic sources as recombinant, soluble proteins (the extracellular domain).
(§2) A standard labeling protocol developed for integrins was applied to each of the three proteins. All proteins were successfully labeled with an average label:protein ratio of ˜4:1. The two soluble, labeled proteins (alpha5beta1 and alphavbeta3) produced background SHG (second-harmonic generation) signals. They also produced conformational change signals upon exposure to GRGDSP (RGD-peptide, a fibronectin-derived peptide Gly-Arg-Gly-Asp-Ser-Pro). The peptide was added at 400 μM and signal changes were immediate (FIG. 1).
(§3) Next, Example 4 was pre-incubated at 100 μM with the labeled proteins for 20 minutes. RGD peptide was then added (400 μM) to stimulate the protein and to test each compound for inhibition.

The target in the next assay is T2, alpha-5-beta-1 (Homo sapiens, UniProt P05556+P08648).
T2 construct: obtained from academic sources as recombinant, soluble proteins (the extracellular domain)
The description is as above. The settings on record: compound pre-incubated at 100 μM for 20 minutes, then RGD peptide 400 μM; labeled alpha-5-beta-1. It is filed as biochemical. On the procedure:
as §1, §2, §3

In assay [1] the test system is human Calu-6 lung cancer cells. As to the kind of experiment: Tumor xenograft model. It is filed as in vivo, SCID mice. The settings on record: 25 mg/kg/day; for inhibition of tumor volume: once daily for 17 days, Calu-6 subcutaneous in SCID mice. As to the method: Female 6-week-old SCID mice were used for tumor studies. Approximately 10^6 human Calu-6 lung cancer cells growing in logarithmic phase were harvested and resuspended in media, and a single cell solution in a volume of […] was implanted subcutaneously at the right flank of each animal. 10 mice were used in the treated groups and 10 mice were used in the control groups. Systemic treatment by oral administration or iv injections with either […] of vehicle or active substance (25 mg/kg/day) was begun when tumors reached a size of 300 mm^3 and continued once daily for a total of 17 days. Visible tumors were present day 5-10 after implantation. Primary tumors were measured with digital calipers on the days indicated. Tumor volumes were calculated according to the formula: Length×width^2×0.52 as reported.

Assay [2] concerns CNV (chorodial neovascularization). As to the kind of experiment: Laser induced mouse eye model (CNV). It is filed as in vivo. The settings on record: given orally at 50 mg/kg/day, laser-induced CNV in mice. The source says: This laser-induced model of CNV is a highly reproducible model that mimics many features of CNV occurring in the wet form of age-related macular degeneration (AMD), the leading cause of blindness in the elderly.

T1 sequence (P06756 31-992 limits assumed): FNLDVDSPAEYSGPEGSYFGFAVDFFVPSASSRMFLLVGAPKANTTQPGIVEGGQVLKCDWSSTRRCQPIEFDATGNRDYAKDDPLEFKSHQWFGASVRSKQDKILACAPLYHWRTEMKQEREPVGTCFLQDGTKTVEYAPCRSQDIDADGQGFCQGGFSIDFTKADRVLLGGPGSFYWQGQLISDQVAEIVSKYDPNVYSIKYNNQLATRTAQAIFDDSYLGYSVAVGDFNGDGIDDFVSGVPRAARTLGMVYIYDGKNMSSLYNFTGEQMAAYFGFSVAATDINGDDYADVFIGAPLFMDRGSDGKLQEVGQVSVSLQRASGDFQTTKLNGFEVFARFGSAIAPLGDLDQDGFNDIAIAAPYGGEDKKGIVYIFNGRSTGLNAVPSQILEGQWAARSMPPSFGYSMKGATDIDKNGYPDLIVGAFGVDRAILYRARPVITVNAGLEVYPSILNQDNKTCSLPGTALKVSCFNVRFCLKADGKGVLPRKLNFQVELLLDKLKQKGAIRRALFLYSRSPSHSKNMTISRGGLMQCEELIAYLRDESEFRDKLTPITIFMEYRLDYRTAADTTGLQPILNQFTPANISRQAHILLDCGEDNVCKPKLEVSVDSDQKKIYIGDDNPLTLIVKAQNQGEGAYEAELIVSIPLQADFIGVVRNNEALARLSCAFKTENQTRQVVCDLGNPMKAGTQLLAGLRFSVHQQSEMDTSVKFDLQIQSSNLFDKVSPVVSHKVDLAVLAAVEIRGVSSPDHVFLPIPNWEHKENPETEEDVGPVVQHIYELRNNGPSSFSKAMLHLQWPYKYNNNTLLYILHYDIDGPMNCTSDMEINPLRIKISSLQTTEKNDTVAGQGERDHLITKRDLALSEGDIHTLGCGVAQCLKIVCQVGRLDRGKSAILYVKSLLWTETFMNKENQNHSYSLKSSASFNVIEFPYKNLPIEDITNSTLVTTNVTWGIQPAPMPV
T1 sequence (P05106 27-718 limits assumed): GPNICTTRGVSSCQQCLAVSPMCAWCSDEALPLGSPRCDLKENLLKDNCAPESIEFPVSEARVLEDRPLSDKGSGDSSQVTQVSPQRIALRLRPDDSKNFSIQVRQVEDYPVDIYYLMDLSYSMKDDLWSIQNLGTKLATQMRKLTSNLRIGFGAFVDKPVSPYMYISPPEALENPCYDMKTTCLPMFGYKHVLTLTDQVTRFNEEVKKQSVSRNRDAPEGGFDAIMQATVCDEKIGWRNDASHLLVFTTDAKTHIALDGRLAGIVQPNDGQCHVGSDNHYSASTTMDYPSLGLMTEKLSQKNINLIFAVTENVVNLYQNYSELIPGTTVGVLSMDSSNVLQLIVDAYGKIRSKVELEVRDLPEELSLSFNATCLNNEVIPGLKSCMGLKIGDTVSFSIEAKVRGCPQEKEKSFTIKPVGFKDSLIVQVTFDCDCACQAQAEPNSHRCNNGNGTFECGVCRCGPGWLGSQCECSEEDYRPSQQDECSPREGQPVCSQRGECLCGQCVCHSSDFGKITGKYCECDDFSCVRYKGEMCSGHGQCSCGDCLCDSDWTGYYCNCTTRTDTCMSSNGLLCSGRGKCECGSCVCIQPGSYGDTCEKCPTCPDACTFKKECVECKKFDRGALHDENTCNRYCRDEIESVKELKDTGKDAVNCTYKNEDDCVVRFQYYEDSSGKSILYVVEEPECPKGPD
T2 sequence (P08648 42-995 limits assumed): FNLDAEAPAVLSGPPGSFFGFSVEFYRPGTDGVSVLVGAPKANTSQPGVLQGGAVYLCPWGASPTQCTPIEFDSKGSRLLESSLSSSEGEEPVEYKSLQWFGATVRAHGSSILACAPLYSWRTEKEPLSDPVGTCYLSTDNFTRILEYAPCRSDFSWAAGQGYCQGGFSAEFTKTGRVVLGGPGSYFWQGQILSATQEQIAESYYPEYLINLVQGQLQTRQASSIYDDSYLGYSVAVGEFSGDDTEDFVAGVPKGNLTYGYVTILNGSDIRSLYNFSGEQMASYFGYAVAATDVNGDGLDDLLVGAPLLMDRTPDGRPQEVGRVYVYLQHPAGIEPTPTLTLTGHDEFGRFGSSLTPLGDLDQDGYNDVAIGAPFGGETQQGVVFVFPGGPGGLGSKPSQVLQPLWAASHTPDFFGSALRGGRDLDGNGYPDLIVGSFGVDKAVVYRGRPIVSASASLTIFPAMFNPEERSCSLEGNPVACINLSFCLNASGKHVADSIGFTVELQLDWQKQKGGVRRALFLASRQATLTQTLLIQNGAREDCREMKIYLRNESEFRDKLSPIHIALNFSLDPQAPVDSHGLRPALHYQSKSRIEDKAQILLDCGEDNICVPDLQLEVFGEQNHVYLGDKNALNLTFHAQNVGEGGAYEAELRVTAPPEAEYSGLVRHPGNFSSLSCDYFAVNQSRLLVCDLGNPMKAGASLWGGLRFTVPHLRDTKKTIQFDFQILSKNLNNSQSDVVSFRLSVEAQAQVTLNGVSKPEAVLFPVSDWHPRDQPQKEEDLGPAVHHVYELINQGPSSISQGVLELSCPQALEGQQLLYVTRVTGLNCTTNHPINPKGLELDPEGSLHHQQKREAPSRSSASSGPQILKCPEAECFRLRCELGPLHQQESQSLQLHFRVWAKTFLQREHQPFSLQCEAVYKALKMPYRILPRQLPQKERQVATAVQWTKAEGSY
T2 sequence (P05556 21-728 limits assumed): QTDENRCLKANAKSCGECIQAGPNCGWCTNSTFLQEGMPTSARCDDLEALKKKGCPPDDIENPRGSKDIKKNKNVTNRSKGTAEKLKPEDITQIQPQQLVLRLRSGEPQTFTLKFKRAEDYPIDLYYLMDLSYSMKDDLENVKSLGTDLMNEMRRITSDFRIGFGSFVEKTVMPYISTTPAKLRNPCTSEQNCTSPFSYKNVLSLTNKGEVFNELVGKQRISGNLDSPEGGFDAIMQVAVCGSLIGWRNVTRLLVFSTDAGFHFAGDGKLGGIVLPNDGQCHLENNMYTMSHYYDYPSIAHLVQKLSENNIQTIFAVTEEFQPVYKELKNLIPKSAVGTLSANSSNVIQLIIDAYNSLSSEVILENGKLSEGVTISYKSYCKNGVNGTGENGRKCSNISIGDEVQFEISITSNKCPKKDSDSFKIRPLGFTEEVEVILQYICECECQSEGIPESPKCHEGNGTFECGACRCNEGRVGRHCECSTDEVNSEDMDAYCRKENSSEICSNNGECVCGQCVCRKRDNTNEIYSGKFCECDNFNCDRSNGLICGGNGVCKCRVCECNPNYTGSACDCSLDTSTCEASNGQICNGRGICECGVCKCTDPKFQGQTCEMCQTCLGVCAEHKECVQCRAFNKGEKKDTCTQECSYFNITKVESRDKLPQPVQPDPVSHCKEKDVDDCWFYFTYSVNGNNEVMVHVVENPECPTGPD

Regarding `CNC(=O)c1ccc2ncc(C(=O)O)c(Nc3ccc(OC)cc3)c2c1` [Example 4, 4-[(4-Methoxyphenyl)amino]-6-(methylcarbamoyl)quinoline-3-carboxylic Acid], the “effect on RGD-induced conformational change (SHG signal)” value was “no effect” at alpha-v-beta-3 and “prevented RGD-induced conformational change” at alpha-5-beta-1. For the same molecule, the inhibition of angiogenesis entry in assay [1] (both groups (oral and iv), Calu-6 xenograft) is “inhibits angiogenesis significantly”. The “inhibition of tumor volume” value in assay [1] (iv treatment) stood at 71%; in assay [1] (oral treatment), 52%. The “inhibition of CNV growth in eye compared with control” value in assay [2] turned out to be 42%.
